These compounds were tested against SARS-CoV-2 3CL-protease (Severe acute respiratory syndrome coronavirus 2, UniProt P0DTD1) (assay: SARS-CoV-2 3C-like (3CL) protease fluorescence assay (FRET)). Details: recombinant SARS-CoV-2 3CL-protease 10 nM, 30 min preincubation, run in duplicate; read-out: FRET IC50.
Type: biochemical

SMILES | IC50
[2H]C([2H])([2H])N(C(=O)C(=O)Nc1ccc(C(F)(F)F)cc1)[C@@H](CC1CC1)C(=O)N1C[C@]2(C[C@H]1C#N)C(=O)Nc1ccccc12 [Example 54] | < 100 nM
[2H]C([2H])([2H])N(C(=O)C(=O)Nc1ccc(F)cc1C(F)(F)F)[C@@H](CC1CC1)C(=O)N1C[C@]2(C[C@H]1C#N)C(=O)Nc1ccccc12 [Example 55] | < 100 nM
[2H]C([2H])([2H])N(C(=O)C(=O)NCC(C)C)[C@@H](CCCC)C(=O)N1C[C@]2(C[C@H]1C#N)C(=O)Nc1ccccc12 [Example 56] | < 100 nM
[2H]C([2H])([2H])N(C(=O)C(=O)c1ccc(F)cc1)[C@@H](CCCC)C(=O)N1C[C@]2(C[C@H]1C#N)C(=O)Nc1ccccc12 [Example 57] | < 100 nM
CC(C)(C)C[C@@H](C(=O)N1C[C@]2(C[C@H]1C#N)C(=O)Nc1ccccc12)N(CC(F)F)C(=O)C(=O)Nc1ccccc1 [Example 60] | 100 to 1000 nM
CC(C)(C)C[C@@H](C(=O)N1C[C@]2(C[C@H]1C#N)C(=O)Nc1ccccc12)N(CC(F)F)C(=O)C(=O)Nc1ccccn1 [Example 61] | > 1000 nM
CC(C)(C)C[C@@H](C(=O)N1C[C@]2(C[C@H]1C#N)C(=O)Nc1ccccc12)N(CC(F)F)C(=O)C(=O)Nc1ccc(F)cc1 [Example 62] | 100 to 1000 nM
CC(C)(C)C[C@@H](C(=O)N1C[C@]2(C[C@H]1C#N)C(=O)Nc1ccccc12)N(CC(F)F)C(=O)C(=O)NC1CC1 [Example 63] | 100 to 1000 nM
CC(C)(C)C[C@@H](C(=O)N1C[C@]2(C[C@H]1C#N)C(=O)Nc1ccccc12)N(CC(F)(F)F)C(=O)C(=O)Nc1ccc(F)cc1 [Example 64] | 100 to 1000 nM
CC(C)(C)C[C@@H](C(=O)N1C[C@]2(C[C@H]1C#N)C(=O)Nc1ccccc12)N(CC(F)(F)F)C(=O)C(=O)Nc1ccccc1 [Example 65] | 100 to 1000 nM
CC(C)(C)C[C@@H](C(=O)N1C[C@]2(C[C@H]1C#N)C(=O)Nc1ccccc12)N(CC(F)(F)F)C(=O)C(=O)Nc1ccccn1 [Example 66] | > 1000 nM
CC(C)(C)C[C@@H](C(=O)N1C[C@]2(C[C@H]1C#N)C(=O)Nc1ccccc12)N(CC(F)(F)F)C(=O)C(=O)NC1CC1 [Example 67] | 100 to 1000 nM
Cc1cccc(C)c1NC(=O)C(=O)N[C@@H](Cc1ccc(F)cc1)C(=O)N1C[C@]2(C[C@H]1C#N)C(=O)Nc1ccccc12 [Example 73] | < 100 nM
Cc1cccc(C)c1NC(=O)C(=O)N[C@@H](CC1CC1)C(=O)N1C[C@]2(C[C@H]1C#N)C(=O)Nc1ccccc12 [Example 78] | < 100 nM
CCCC[C@H](NC(=O)C(=O)Nc1c(F)cccc1C(F)(F)F)C(=O)N1C[C@]2(C[C@H]1C#N)C(=O)Nc1ccccc12 [Example 79] | < 100 nM
CC(C)(C)C[C@H](NC(=O)C(=O)Nc1cc(F)cc(F)c1)C(=O)N1C[C@]2(C[C@H]1C#N)C(=O)Nc1ccccc12 [Example 86] | < 100 nM
CC(C)(C)C[C@H](NC(=O)C(=O)NC(C)(C)c1ccccn1)C(=O)N1C[C@]2(C[C@H]1C#N)C(=O)Nc1ccccc12 [Example 106] | < 100 nM
CC(C)(C)C[C@H](NC(=O)C(=O)NC1(c2ccccc2C(F)(F)F)CC1)C(=O)N1C[C@]2(C[C@H]1C#N)C(=O)Nc1ccccc12 [Example 107] | < 100 nM
CC(C)(C)C[C@H](NC(=O)C(=O)NC1(c2ccc(C(F)(F)F)cc2)CC1)C(=O)N1C[C@]2(C[C@H]1C#N)C(=O)Nc1ccccc12 [Example 108] | < 100 nM
CN(C(=O)C(=O)N[C@@H](CC(C)(C)C)C(=O)N1C[C@]2(C[C@H]1C#N)C(=O)Nc1ccccc12)C1CC1 [Example 109] | > 1000 nM

SMILES | IC50
CC(C)(C)C[C@H](NC(=O)C(=O)N1CCCCC1)C(=O)N1C[C@]2(C[C@H]1C#N)C(=O)Nc1ccccc12 [Example 110] | > 1000 nM
CC(C)(C)C[C@H](NC(=O)C(=O)N1CCC(F)(F)CC1)C(=O)N1C[C@]2(C[C@H]1C#N)C(=O)Nc1ccccc12 [Example 111] | > 1000 nM
CC(C)(C)C[C@H](NC(=O)C(=O)N1CCC(C(F)(F)F)CC1)C(=O)N1C[C@]2(C[C@H]1C#N)C(=O)Nc1ccccc12 [Example 112] | 100 to 1000 nM
CC(C)(C)C[C@H](NC(=O)C(=O)Nc1ccc2cccnc2c1)C(=O)N1C[C@]2(C[C@H]1C#N)C(=O)Nc1ccccc12 [Example 113] | < 100 nM
CC(C)(C)C[C@H](NC(=O)C(=O)Nc1ccc2ncccc2c1)C(=O)N1C[C@]2(C[C@H]1C#N)C(=O)Nc1ccccc12 [Example 114] | < 100 nM
CC(C)(C)C[C@H](NC(=O)C(=O)Nc1ncccc1F)C(=O)N1C[C@]2(C[C@H]1C#N)C(=O)Nc1ccccc12 [Example 121] | < 100 nM
CC(C)(C)C[C@H](NC(=O)C(=O)Nc1c(F)cncc1F)C(=O)N1C[C@]2(C[C@H]1C#N)C(=O)Nc1ccccc12 [Example 122] | < 100 nM
CC(C)(C)C[C@H](NC(=O)C(=O)Nc1ccc2[nH]ccc2c1)C(=O)N1C[C@]2(C[C@H]1C#N)C(=O)Nc1ccccc12 [Example 123] | < 100 nM
CC(C)(C)C[C@H](NC(=O)C(=O)Nc1ccc2cc[nH]c2c1)C(=O)N1C[C@]2(C[C@H]1C#N)C(=O)Nc1ccccc12 [Example 124] | < 100 nM
CC(C)(C)C[C@H](NC(=O)C(=O)Nc1ncccc1C(F)(F)F)C(=O)N1C[C@]2(C[C@H]1C#N)C(=O)Nc1ccccc12 [Example 125] | < 100 nM
Cc1cccnc1NC(=O)C(=O)N[C@@H](CC(C)(C)C)C(=O)N1C[C@]2(C[C@H]1C#N)C(=O)Nc1ccccc12 [Example 126] | < 100 nM
Cc1ccc(NC(=O)C(=O)N[C@@H](CC(C)(C)C)C(=O)N2C[C@]3(C[C@H]2C#N)C(=O)Nc2ccccc23)nc1 [Example 127] | < 100 nM
CC(C)(C)C[C@H](NC(=O)C(=O)Nc1ccnc(C(F)(F)F)c1)C(=O)N1C[C@]2(C[C@H]1C#N)C(=O)Nc1ccccc12 [Example 128] | < 100 nM
CC(C)(C)C[C@H](NC(=O)C(=O)N[C@]12C[C@](C(F)(F)F)(C1)C2)C(=O)N1C[C@]2(C[C@H]1C#N)C(=O)Nc1ccccc12 [Example 129] | < 100 nM
CC(C)(C)C[C@H](NC(=O)C(=O)NC12CCC(CC1)CC2)C(=O)N1C[C@]2(C[C@H]1C#N)C(=O)Nc1ccccc12 [Example 130] | < 100 nM
CC(C)(C)C[C@H](NC(=O)C(=O)NC1CCC(F)(F)CC1)C(=O)N1C[C@]2(C[C@H]1C#N)C(=O)Nc1ccccc12 [Example 131] | < 100 nM
Cc1cccc(C(F)(F)F)c1NC(=O)C(=O)N[C@@H](CC(C)(C)C)C(=O)N1C[C@]2(C[C@H]1C#N)C(=O)Nc1ccccc12 [Example 132] | < 100 nM
CC(C)(C)C[C@H](NC(=O)C(=O)NC1(C(F)(F)F)CC1)C(=O)N1C[C@]2(C[C@H]1C#N)C(=O)Nc1ccccc12 [Example 134] | < 100 nM
CC(C)(C)C[C@H](NC(=O)C(=O)NC(C)(C)C(F)(F)F)C(=O)N1C[C@]2(C[C@H]1C#N)C(=O)Nc1ccccc12 [Example 135] | < 100 nM
CC(C)(C)C[C@H](NC(=O)C(=O)N[C@]12CC[C@H](C1)C2)C(=O)N1C[C@]2(C[C@H]1C#N)C(=O)Nc1ccccc12 [Example 136] | < 100 nM

SMILES | IC50
CC(C)(C)C[C@H](NC(=O)C(=O)Nc1ccc(C(F)(F)F)cc1C(F)(F)F)C(=O)N1C[C@]2(C[C@H]1C#N)C(=O)Nc1ccccc12 [Example 137] | 100 to 1000 nM
CC(C)(C)C[C@H](NC(=O)C(=O)NC1(c2ccccc2F)CC1)C(=O)N1C[C@]2(C[C@H]1C#N)C(=O)Nc1ccccc12 [Example 139] | < 100 nM
CC(C)(C)C[C@H](NC(=O)C(=O)NC1(C)CC1)C(=O)N1C[C@]2(C[C@H]1C#N)C(=O)Nc1ccccc12 [Example 140] | < 100 nM
CC(C)(C)C[C@H](NC(=O)C(=O)N[C@]12C[C@](C)(C1)C2)C(=O)N1C[C@]2(C[C@H]1C#N)C(=O)Nc1ccccc12 [Example 141] | < 100 nM
CC(C)(C)C[C@H](NC(=O)C(=O)N[C@]12C[C@](F)(C1)C2)C(=O)N1C[C@]2(C[C@H]1C#N)C(=O)Nc1ccccc12 [Example 142] | < 100 nM
Cc1cc(F)cc(C)c1NC(=O)C(=O)N[C@@H](CC(C)(C)C)C(=O)N1C[C@]2(C[C@H]1C#N)C(=O)Nc1ccccc12 [Example 143] | < 100 nM
COc1cccc(C)c1NC(=O)C(=O)N[C@@H](CC(C)(C)C)C(=O)N1C[C@]2(C[C@H]1C#N)C(=O)Nc1ccccc12 [Example 144] | < 100 nM
CC(C)(C)C[C@H](NC(=O)C(=O)Nc1c(C#N)cccc1C(F)(F)F)C(=O)N1C[C@]2(C[C@H]1C#N)C(=O)Nc1ccccc12 [Example 145] | 100 to 1000 nM
CC(C)(C)C[C@H](NC(=O)C(=O)Nc1c(F)cccc1Cl)C(=O)N1C[C@]2(C[C@H]1C#N)C(=O)Nc1ccccc12 [Example 146] | < 100 nM
Cc1cccc(Cl)c1NC(=O)C(=O)N[C@@H](CC(C)(C)C)C(=O)N1C[C@]2(C[C@H]1C#N)C(=O)Nc1ccccc12 [Example 147] | < 100 nM
CC(C)(C)C[C@H](NC(=O)C(=O)Nc1c(Cl)cccc1C#N)C(=O)N1C[C@]2(C[C@H]1C#N)C(=O)Nc1ccccc12 [Example 148] | < 100 nM
CC(C)(C)C[C@H](NC(=O)C(=O)Nc1ccc(Cl)cc1C(F)(F)F)C(=O)N1C[C@]2(C[C@H]1C#N)C(=O)Nc1ccccc12 [Example 149] | < 100 nM
CC(C)(C)C[C@H](NC(=O)C(=O)Nc1c(F)ccc(F)c1F)C(=O)N1C[C@]2(C[C@H]1C#N)C(=O)Nc1ccccc12 [Example 150] | < 100 nM
CN(C(=O)C(=O)Nc1c(Cl)cccc1Cl)[C@@H](CC(C)(C)C)C(=O)N1C[C@]2(C[C@H]1C#N)C(=O)Nc1ccccc12 [Example 151] | < 100 nM
Cc1ccnc(C)c1NC(=O)C(=O)N[C@@H](CC(C)(C)C)C(=O)N1C[C@]2(C[C@H]1C#N)C(=O)Nc1ccccc12 [Example 152] | < 100 nM
CC(C)(C)C[C@H](NC(=O)C(=O)Nc1cc(C(F)(F)F)ccn1)C(=O)N1C[C@]2(C[C@H]1C#N)C(=O)Nc1ccccc12 [Example 153] | < 100 nM
CC(C)(C)C[C@H](NC(=O)C(=O)Nc1ccc(C(F)(F)F)cn1)C(=O)N1C[C@]2(C[C@H]1C#N)C(=O)Nc1ccccc12 [Example 154] | < 100 nM
CC(C)(C)C[C@H](NC(=O)C(=O)Nc1cccc(C(F)(F)F)n1)C(=O)N1C[C@]2(C[C@H]1C#N)C(=O)Nc1ccccc12 [Example 155] | < 100 nM

Source: patent US12643905B2, “Spiropyrrolidine derived antiviral agents” (priority 2021, dated 2026)
